According to the supplement of paper PMC10307832:

Legend:
Test in all cases: relative viability (nuclei count vs DMSO), 5 days (fraction); higher = more cells survive
NCI-H1395 = test system: NCI-H1395
Method in brief: (§1)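 Relative viability is defined as nuclei in treated wells over nuclei in vehicle wells. Duplicate plates were run and medians reported. Lung cancer cell lines in 1536-well plates were dosed by pin tool one day after seeding, with one drug or with a fixed anchor-drug dose plus five library-drug doses (not always all listed) in √10 steps, and nuclei were counted after 5 days.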

PC-14 = test system: PC-14
Method in brief: as §1

NCI-H441 = test system: NCI-H441
Method in brief: as §1

NCI-H1975 = test system: NCI-H1975
Method in brief: as §1

A-427 = test system: A-427
Method in brief: as §1

NCI-H520 = test system: NCI-H520
Method in brief: as §1

NCI-H838 = test system: NCI-H838
Method in brief: as §1

LXF-289 = test system: LXF-289
Method in brief: as §1

RERF-LC-KJ = test system: RERF-LC-KJ
Method in brief: as §1

H3255 = test system: H3255
Method in brief: as §1

NCI-H2405 = test system: NCI-H2405
Method in brief: as §1

SK-MES-1 = test system: SK-MES-1
Method in brief: as §1

NCI-H2170 = test system: NCI-H2170
Method in brief: as §1

NCI-H2347 = test system: NCI-H2347
Method in brief: as §1

HCC-366 = test system: HCC-366
Method in brief: as §1

HARA = test system: HARA
Method in brief: as §1

NCI-H1915 = test system: NCI-H1915
Method in brief: as §1

LCLC-97TM1 = test system: LCLC-97TM1
Method in brief: as §1

NCI-H1755 = test system: NCI-H1755
Method in brief: as §1

NCI-H3122 = test system: NCI-H3122
Method in brief: as §1

NCI-H2228 = test system: NCI-H2228
Method in brief: as §1

NCI-H1993 = test system: NCI-H1993
Method in brief: as §1

For `C=C1C(=O)O[C@@H](CCCCCCCC)[C@@H]1C(=O)O` [C-75] + Cc1nc(Nc2ncc(C(=O)Nc3c(C)cccc3Cl)s2)cc(N2CCN(CCO)CC2)n1 [Dasatinib] (partner 0.075 µM), the relative viability (NCI-H1395; first compound 0.08 µM) was 0.396, the relative viability (NCI-H1395; first compound 0.253 µM) was 0.388 and the relative viability (NCI-H1395; first compound 0.8 µM) was 0.42. For the same compound, the relative viability (NCI-H1395; first compound 2.53 µM) was 0.407, the relative viability (NCI-H1395; first compound 8 µM) was 0.477 and the relative viability (PC-14; first compound 0.08 µM) was 0.292. The relative viability (PC-14; first compound 0.253 µM) was 0.227, the relative viability (PC-14; first compound 0.8 µM) was 0.27 and the relative viability (PC-14; first compound 2.53 µM) was 0.272. The relative viability (PC-14; first compound 8 µM) was 0.222, the relative viability (NCI-H441; first compound 0.08 µM) was 0.545 and the relative viability (NCI-H441; first compound 0.253 µM) was 0.916. It also gave a relative viability (NCI-H441; first compound 0.8 µM) of 0.723, a relative viability (NCI-H441; first compound 2.53 µM) of 0.463 and a relative viability (NCI-H441; first compound 8 µM) of 0.594. It also gave a relative viability (NCI-H1975; first compound 0.08 µM) of 0.364, a relative viability (NCI-H1975; first compound 0.253 µM) of 0.432 and a relative viability (NCI-H1975; first compound 0.8 µM) of 0.318. It also gave a relative viability (NCI-H1975; first compound 2.53 µM) of 0.324, a relative viability (NCI-H1975; first compound 8 µM) of 0.404 and a relative viability (A-427; first compound 0.08 µM) of 0.689. The relative viability (A-427; first compound 0.253 µM) was 0.661, the relative viability (A-427; first compound 0.8 µM) was 0.645 and the relative viability (A-427; first compound 2.53 µM) was 0.605. The relative viability (A-427; first compound 8 µM) was 0.658, the relative viability (NCI-H520; first compound 0.08 µM) was 0.188 and the relative viability (NCI-H520; first compound 0.253 µM) was 0.206. The relative viability (NCI-H520; first compound 0.8 µM) was 0.206, the relative viability (NCI-H520; first compound 2.53 µM) was 0.182 and the relative viability (NCI-H520; first compound 8 µM) was 0.179. It also gave a relative viability (NCI-H838; first compound 0.08 µM) of 0.242, a relative viability (NCI-H838; first compound 0.253 µM) of 0.239 and a relative viability (NCI-H838; first compound 0.8 µM) of 0.274. It also gave a relative viability (NCI-H838; first compound 2.53 µM) of 0.26, a relative viability (NCI-H838; first compound 8 µM) of 0.268 and a relative viability (LXF-289; first compound 0.08 µM) of 0.22. The relative viability (LXF-289; first compound 0.253 µM) was 0.137, the relative viability (LXF-289; first compound 0.8 µM) was 0.26 and the relative viability (LXF-289; first compound 2.53 µM) was 0.163. The relative viability (LXF-289; first compound 8 µM) was 0.22, the relative viability (RERF-LC-KJ; first compound 0.08 µM) was 0.917 and the relative viability (RERF-LC-KJ; first compound 0.253 µM) was 0.901. For the same compound, the relative viability (RERF-LC-KJ; first compound 0.8 µM) was 0.819, the relative viability (RERF-LC-KJ; first compound 2.53 µM) was 0.682 and the relative viability (RERF-LC-KJ; first compound 8 µM) was 0.798. It also gave a relative viability (H3255; first compound 0.08 µM) of 0.382, a relative viability (H3255; first compound 0.253 µM) of 0.371 and a relative viability (H3255; first compound 0.8 µM) of 0.337. The relative viability (H3255; first compound 2.53 µM) was 0.327, the relative viability (H3255; first compound 8 µM) was 0.437 and the relative viability (NCI-H2405; first compound 0.08 µM) was 0.196. The relative viability (NCI-H2405; first compound 0.253 µM) was 0.191, the relative viability (NCI-H2405; first compound 0.8 µM) was 0.188 and the relative viability (NCI-H2405; first compound 2.53 µM) was 0.216. It also gave a relative viability (NCI-H2405; first compound 8 µM) of 0.22, a relative viability (SK-MES-1; first compound 0.08 µM) of 0.357 and a relative viability (SK-MES-1; first compound 0.253 µM) of 0.286. For the same compound, the relative viability (SK-MES-1; first compound 0.8 µM) was 0.319, the relative viability (SK-MES-1; first compound 2.53 µM) was 0.332 and the relative viability (SK-MES-1; first compound 8 µM) was 0.336. For the same compound, the relative viability (NCI-H2170; first compound 0.08 µM) was 0.692, the relative viability (NCI-H2170; first compound 0.253 µM) was 0.552 and the relative viability (NCI-H2170; first compound 0.8 µM) was 0.552. For the same compound, the relative viability (NCI-H2170; first compound 2.53 µM) was 0.476, the relative viability (NCI-H2170; first compound 8 µM) was 0.522 and the relative viability (NCI-H2347; first compound 0.08 µM) was 0.367. It also gave a relative viability (NCI-H2347; first compound 0.253 µM) of 0.448, a relative viability (NCI-H2347; first compound 0.8 µM) of 0.25 and a relative viability (NCI-H2347; first compound 8 µM) of 0.32. The relative viability (HCC-366; first compound 0.08 µM) was 0.744, the relative viability (HCC-366; first compound 0.253 µM) was 0.623 and the relative viability (HCC-366; first compound 0.8 µM) was 0.605. For the same compound, the relative viability (HCC-366; first compound 8 µM) was 0.443, the relative viability (HARA; first compound 0.08 µM) was 0.257 and the relative viability (HARA; first compound 0.253 µM) was 0.241. It also gave a relative viability (HARA; first compound 0.8 µM) of 0.239, a relative viability (HARA; first compound 2.53 µM) of 0.178 and a relative viability (HARA; first compound 8 µM) of 0.298. It also gave a relative viability (NCI-H1915; first compound 0.08 µM) of 0.343, a relative viability (NCI-H1915; first compound 0.253 µM) of 0.304 and a relative viability (NCI-H1915; first compound 0.8 µM) of 0.311. The relative viability (NCI-H1915; first compound 2.53 µM) was 0.289, the relative viability (NCI-H1915; first compound 8 µM) was 0.383 and the relative viability (LCLC-97TM1; first compound 0.08 µM) was 0.799. It also gave a relative viability (LCLC-97TM1; first compound 0.253 µM) of 0.807, a relative viability (LCLC-97TM1; first compound 0.8 µM) of 0.883 and a relative viability (LCLC-97TM1; first compound 2.53 µM) of 0.704. It also gave a relative viability (LCLC-97TM1; first compound 8 µM) of 0.874, a relative viability (NCI-H1755; first compound 0.08 µM) of 0.42 and a relative viability (NCI-H1755; first compound 0.253 µM) of 0.33. For the same compound, the relative viability (NCI-H1755; first compound 0.8 µM) was 0.404, the relative viability (NCI-H1755; first compound 2.53 µM) was 0.259 and the relative viability (NCI-H1755; first compound 8 µM) was 0.43. The relative viability (NCI-H3122; first compound 0.08 µM) was 0.832, the relative viability (NCI-H3122; first compound 0.253 µM) was 0.798 and the relative viability (NCI-H3122; first compound 0.8 µM) was 0.583. It also gave a relative viability (NCI-H3122; first compound 2.53 µM) of 0.594, a relative viability (NCI-H3122; first compound 8 µM) of 0.742 and a relative viability (NCI-H2228; first compound 0.08 µM) of 0.613. The relative viability (NCI-H2228; first compound 0.253 µM) was 0.627, the relative viability (NCI-H2228; first compound 0.8 µM) was 0.524 and the relative viability (NCI-H2228; first compound 2.53 µM) was 0.394. It also gave a relative viability (NCI-H2228; first compound 8 µM) of 0.396, a relative viability (NCI-H1993; first compound 0.08 µM) of 0.568 and a relative viability (NCI-H1993; first compound 0.253 µM) of 0.861. It also gave a relative viability (NCI-H1993; first compound 0.8 µM) of 0.475, a relative viability (NCI-H1993; first compound 2.53 µM) of 0.553 and a relative viability (NCI-H1993; first compound 8 µM) of 0.602.
